Measured values: PMC12044326 (Clinical Pharmacology in Drug Development, 2025)
Like-named read-outs stand apart in the source and are kept apart here.

Experiments:
UGT1A9 [1] = target: T1, UGT1A9 (Homo sapiens, UniProt O60656); test: PBPK elimination inputs (retrograde model, fm, KM sensitivity); conditions: PBPK input
T1 sequence (O60656 26-530): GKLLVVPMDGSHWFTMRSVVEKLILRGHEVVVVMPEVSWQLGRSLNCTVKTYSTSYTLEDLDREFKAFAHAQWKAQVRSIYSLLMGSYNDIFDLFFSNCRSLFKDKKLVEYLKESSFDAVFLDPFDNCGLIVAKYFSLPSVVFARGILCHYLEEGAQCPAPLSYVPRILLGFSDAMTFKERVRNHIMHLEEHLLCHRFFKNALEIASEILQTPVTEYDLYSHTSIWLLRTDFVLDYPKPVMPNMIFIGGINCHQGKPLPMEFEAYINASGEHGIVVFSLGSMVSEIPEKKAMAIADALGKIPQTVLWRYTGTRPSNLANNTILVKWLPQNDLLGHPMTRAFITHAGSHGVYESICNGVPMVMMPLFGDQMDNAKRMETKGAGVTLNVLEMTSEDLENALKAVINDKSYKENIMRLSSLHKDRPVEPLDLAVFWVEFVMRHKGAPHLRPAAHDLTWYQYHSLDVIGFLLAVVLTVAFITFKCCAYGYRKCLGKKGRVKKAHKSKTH

OATP1B3 = target: T2, OATP1B3 (Homo sapiens, UniProt Q9NPD5)
T2 sequence (Q9NPD5 1-702): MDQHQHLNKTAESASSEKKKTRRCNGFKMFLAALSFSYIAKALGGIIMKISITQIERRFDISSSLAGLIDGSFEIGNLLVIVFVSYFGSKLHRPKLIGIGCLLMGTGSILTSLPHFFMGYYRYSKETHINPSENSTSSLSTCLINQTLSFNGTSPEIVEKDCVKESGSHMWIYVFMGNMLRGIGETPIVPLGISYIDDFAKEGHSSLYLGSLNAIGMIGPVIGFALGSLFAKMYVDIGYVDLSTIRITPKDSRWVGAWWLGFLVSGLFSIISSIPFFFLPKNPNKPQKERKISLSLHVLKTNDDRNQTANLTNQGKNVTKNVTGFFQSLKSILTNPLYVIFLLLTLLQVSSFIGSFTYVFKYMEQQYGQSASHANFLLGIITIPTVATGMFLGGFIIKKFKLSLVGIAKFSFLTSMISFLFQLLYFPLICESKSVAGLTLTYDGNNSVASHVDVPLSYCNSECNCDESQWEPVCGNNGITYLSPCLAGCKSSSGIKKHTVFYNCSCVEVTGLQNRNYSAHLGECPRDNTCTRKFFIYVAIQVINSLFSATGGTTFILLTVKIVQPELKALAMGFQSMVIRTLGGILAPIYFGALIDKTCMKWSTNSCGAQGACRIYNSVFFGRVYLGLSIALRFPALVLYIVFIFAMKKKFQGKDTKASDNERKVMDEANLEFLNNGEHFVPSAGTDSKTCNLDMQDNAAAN

[2] = parameters: method as in earlier work; conditions: ref 7 of supplement, cited from earlier work
UGT2B4 [3] = target: T3, UGT2B4 (Homo sapiens, UniProt P06133); test: PBPK elimination inputs (retrograde model, fm, KM sensitivity); conditions: PBPK input
T3 sequence (P06133 24-528): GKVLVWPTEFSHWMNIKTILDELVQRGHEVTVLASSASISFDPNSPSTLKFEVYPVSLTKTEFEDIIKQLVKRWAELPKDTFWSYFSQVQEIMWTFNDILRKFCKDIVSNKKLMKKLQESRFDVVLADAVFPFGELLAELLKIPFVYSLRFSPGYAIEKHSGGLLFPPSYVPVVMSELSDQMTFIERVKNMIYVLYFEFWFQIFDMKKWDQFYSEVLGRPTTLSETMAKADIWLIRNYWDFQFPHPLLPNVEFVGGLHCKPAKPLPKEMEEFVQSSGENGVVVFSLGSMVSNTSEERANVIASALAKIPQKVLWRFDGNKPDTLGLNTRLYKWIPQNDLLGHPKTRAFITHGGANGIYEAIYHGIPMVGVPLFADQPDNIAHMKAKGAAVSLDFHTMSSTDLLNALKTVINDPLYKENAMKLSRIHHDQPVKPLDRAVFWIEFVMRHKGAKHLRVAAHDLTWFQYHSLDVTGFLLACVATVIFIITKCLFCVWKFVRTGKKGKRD

CYP3A4 [4] = conditions: predicted by combining in vitro phenotyping and human ADME data; cited from earlier work
[5] = test system: cholesterol 24‐hydroxylase (CH24H); conditions: 100, 200, and 300 mg BID, cited from earlier work
[6] = ref 6 of supplement, cited from earlier work; for AUC0-inf observed / Cmax observed: geometric mean; for tmax observed: median
UGT2B4 [7] = target: T3, UGT2B4; parameters: with alamethicin-pretreated HLMs (0.5 mg/mL); tissue Sekisui-XenoTech; host or cells: pooled human liver microsomes (200 donors); conditions: predicted by combining in vitro phenotyping and human ADME data; cited from earlier work
CYP3A4 [8] = test: PBPK elimination inputs (retrograde model, fm); parameters: species or system human; conditions: PBPK input
UGT1A9 [9] = target: T1, UGT1A9; parameters: method as in PMID 38123352; conditions: cited from earlier work
[10] = 100 mg QD, Day 1, geometric mean
[11] = 100 mg QD, Day 14, geometric mean
[12] = 300 mg QD, Day 1, geometric mean
[13] = 300 mg QD, Day 14, geometric mean
[14] = 400 mg QD, Day 1, geometric mean
[15] = 400 mg QD, Day 14, geometric mean
[16] = Fig 2C, soticlestat 300 mg alone or with mefenamic acid, n = 14

## O=C(c1cccnc1-c1ccncc1)N1CCC(O)(Cc2ccccc2)CC1 [Soticlestat]
UGT1A9 [1]
  fmUGT1A9: 0.1
OATP1B3
  inhibition of OATP1B3: did not demonstrate clinically relevant inhibition
[2]; [10]
  AUC0-24 observed: 422 ng·h/mL
  Cmax observed: 419 ng/mL
[2]; 100 mg QD, Day 1, median
  tmax observed: 25.2 min
[2]; [11]
  AUCtau observed: 443 ng·h/mL
  Cmax observed: 469 ng/mL
[2]; 100 mg QD, Day 14, median
  tmax observed: 19.8 min
[2]; [12]
  AUC0-24 observed: 1798 ng·h/mL
  Cmax observed: 1729 ng/mL
[2]; 300 mg QD, Day 1, median
  tmax observed: 25.2 min
[2]; [13]
  AUCtau observed: 2497 ng·h/mL
  Cmax observed: 2866 ng/mL
[2]; 300 mg QD, Day 14, median
  tmax observed: 19.8 min
[2]; [14]
  AUC0-24 observed: 2283 ng·h/mL
  Cmax observed: 2374 ng/mL
[2]; [15]
  AUCtau observed: 2605 ng·h/mL
  Cmax observed: 2709 ng/mL
UGT2B4 [3]
  fmUGT2B4: 0.8
CYP3A4 [4]
  fm by CYP3A: 9.5%
[5]; steady state
  24HC reduction: ≥ 60%
[5]
  steady‐state enzyme occupancy: ≥ 65%
[6]; 15 mg single oral dose
  AUC0-inf observed: 22.6 ng·h/mL
  Cmax observed: 33.5 ng/mL
  tmax observed: 15 min
[6]; 50 mg single oral dose
  AUC0-inf observed: 134 ng·h/mL
  Cmax observed: 167 ng/mL
  tmax observed: 15 min
[6]; 200 mg single oral dose
  AUC0-inf observed: 591 ng·h/mL
  Cmax observed: 527 ng/mL
  tmax observed: 15 min
[6]; 600 mg single oral dose
  AUC0-inf observed: 4937 ng·h/mL
  Cmax observed: 3847 ng/mL
  tmax observed: 30 min
[6]; 900 mg single oral dose
  AUC0-inf observed: 7454 ng·h/mL
  Cmax observed: 4814 ng/mL
[6]; 1350 mg single oral dose
  AUC0-inf observed: 12,699 h.ng/mL
  Cmax observed: 7672 ng/mL
  tmax observed: 48 min
UGT2B4 [7]
  fm by UGT2B4: 81.2%
CYP3A4 [8]
  fmCYP3A: 0.1
UGT1A9 [9]; [16]
  AUC0-inf observed: 1526 ng·h/mL
  Cmax observed: 1414 ng/mL
UGT1A9 [9]; with mefenamic acid
  effect on soticlestat exposure: did not affect soticlestat exposure
